Data as given in patent publication US20260200849A1, “CATIONIC LIPIDS AND PREPARATION METHOD THEREOF” (RiboX Therapeutics HK Limited, priority 2024, published 2026).
Values joined by “and” are separate entries in the source; they are usually repeats but may differ in a detail not shown here. Equal values may be shown once.

What was measured:
[1] = LNP size and polydispersity index (PDI) by dynamic light scattering (Zetasizer); assay type: physicochemical; conditions: for Size (nm): Formulation No. 010 (Ionizable lipid:DSPC:cholesterol:DSPE-PEG2000 = 38:30:30:2, N/P 6), RNA No. 331
Method: (§1) The LNP size and polydispersity index (PDI), determined by dynamic light scattering (DLS), and zeta potential were measured by a Zetasizer machine (Malvern). RNA concentration and encapsulation efficacy (EE %) were analyzed by the Quant-IT Ribogreen kit by calculating the percentage encapsulation at 100%—(RNA-LNPs/RNA-LNPs with Triton X-100).

[2] = RNA encapsulation efficacy (EE %) by Quant-IT Ribogreen kit; assay type: physicochemical; conditions: LNP
Method: as §1

Hep G2 cells [3] = test: In vitro expression: luciferase activity in Hep G2 cells transfected with RNA-LNPs; assay type: cell-based; conditions: 100 ng/mL RNA-LNPs, 72 hours post transfection
Method: 2E5 Hep G2 cells were transfected with 100 ng/mL of RNA-LNPs encoding for firefly-luciferase. At 72 hours post transfection, the cells were washed and lysed. The luciferase expression (2-well repeat) was determined in the cell lysates with the luciferase assay reagent kit (Promega), according to the kit protocol, luciferase activity was measured by a luminometer.

Hep G2 cells [4] = test: In vitro toxicity: Hep G2 cell viability by CellTiter-Glo; assay type: cell-based; conditions: 72 hours post transfection, cell only = 100%
Method: 2E5 Hep G2 cells were transfected with 1 μg/mL RNA-LNPs. At 72 hours post transfection, cell viability (2-well repeat) was determined with the CellTiter-Glo® reagent kit, according to the kit protocol, measured by a luminometer. Cell only as control (100%).
The cell viability was calculated according to the following formula: […]

Balb/c mice = test: In vivo expression by IV, 0.05 mg/kg luciferase RNA-LNPs, IVIS luminescence; conditions: Formulation No. 010, RNA No. 331, female Balb/c mice, 0.05 mg*kg−1 intravenous; for Whole body at 24 h (p/s) (Mean): 24 hours post injection; for Whole body at 72 h (p/s) (Mean): 72 hours post injection
Procedure, shortened: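 Female Balb/c mice (7-8 weeks, N=3) received 0.05 mg*kg−1 firefly-luciferase RNA-LNPs IV. Luciferin (15 mg/ml) was given IP at 24 and 72 h post-dose for IVIS whole-body luminescence. A second run imaged whole body, liver and spleen at 24 h only.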

C57BL/6J mice [5] = test: In vivo expression by ID, whole-body/injection site skin/lymph node luminescence; conditions: intradermal 0.15 mg/kg, 72 h post injection, female C57BL/6J mice N=3, Formulation 001, RNA 331
Method: 7-8 week old, female C57BL/6J mice (N=3) were injected with 0.15 mg*kg−1 of RNA-LNPs encoding for firefly-luciferase by intradermal injection. At 72-hours post injection, animals were intraperitoneally injected with 15 mg/mi of Luciferin substrate and whole-body/injection site skin/lymph node luminescence were determined by a bioluminescent in vivo imaging system (IVIS).

injection site skin = test: In vivo tolerability after intradermal injection: H&E staining of injection site skin; parameters: species or system C57BL/6J mice; key to Infiltration, mononuclear cells, dermis/subcutaneous, focal, Grade / Edema, subcutaneous, focal, Grade / Erosion, focal, Grade / Skin, Grade: 1==minimal; 2=mild; 3=moderate; 4=marked; 5=severe; N=Normal; NA=Not applicable; —=No data; conditions: intradermal 0.15 mg/kg, 72 h, Formulation 001, RNA 331; for Edema, subcutaneous, focal, Grade / Erosion, focal, Grade / Infiltration, mononuclear cells, dermis/subcutaneous, focal, Grade: per animal; for Total score: sum of lesion grades of the group (N=3)
Method: 7-8 week old, female C57BL/6J mice (N=3) were injected with 0.15 mg*kg−1 of RNA-LNIPs encoding for firefly-luciferase by intradermal injection. At 72-hours post injection, injection site skin from each animal was collected in 10% formalin, for H&E staining. PBS group (N=2) as control. (Note: 1==minimal, 2=mild, 3=moderate, 4=marked, 5=severe; N=Normal; NA=Not applicable; —=No data)

hEPO = test: In vivo expression by IM: serum hEPO concentration by ELISA; conditions: IM 0.075 mg/kg, male C57BL/6J mice N=3, Formulation 001, RNA 019
Method: Circular RNA payloads were suspended in 25 mM Acetate Buffer (pH 4.5). To form LNPs, three volumes of human erythropoietin (hEPO) encoding cirRNA (SEQ ID NO:2), were mixed with one volume of lipids in ethanol solution by microfluidic mixing with the INano™ L+ (Micro& Nano) at a flow rate of 12 ml/min. The molar ratio of ionizable lipid to ribonucleotide was 6. After encapsulation, the particles were dialyzed twice against PBS. The LNP formulation was concentrated to targeted RNA concentration by Amicon® Ultra Centrifugal Filter (100 kDa MWCO) and filtered by a 0.65/0.22 um sterile filter.
6-8 week old, male C57BL/6J mice (N=3) were injected with 0.075 mg*kg−1 of RNA-LNPs encoding for hEPO by intramuscular injection. At 2-/6-/24-/48-/72 h-hours post injection, about 80 μL blood will be harvested and immediately added to the procoagulant containing tube. Stand for 30 min at room temperature and then centrifuged at 2500 g×10 min to obtain serum. About 30 μL serum samples will be aliquoted for hEPO concentration detection by ELISA kit (STEMCELL Technologies).

MCP-1 = test: In vivo tolerability by IM: serum MCP-1 by Luminex; conditions: IM 1.0 mg/kg, male C57BL/6J mice N=3, Formulation 001, RNA 331
Method: (§2) 6-8 week old, male C57BL/6J mice (N=3) were injected with 1.0 mg*kg−1 of RNA-LNPs encoding for firefly-luciferase by intramuscular injection. At 2- and 24-hours post injection, about 40 μL blood was harvested and immediately added to the procoagulant containing tube. Stand for 30 min at room temperature and then centrifuged at 2500 g×10 min to obtain serum. About 15 μL serum samples were aliquoted for cytokine (MCP-1 and IL-6) detection by Luminex (ProcartaPlex Mouse 2-plex, Thermo). PBS group as negative control.

IL-6 = test: In vivo tolerability by IM: serum IL-6 by Luminex; conditions: IM 1.0 mg/kg, male C57BL/6J mice N=3, Formulation 001, RNA 331
Method: as §2

C57BL/6J mice [6] = test: In vivo expression by IM, luciferase RNA-LNPs, whole-body/injection site muscle/organ luminescence; conditions: IM 1.0 mg/kg, 24 h post injection, male C57BL/6J mice N=3, Formulation 001, RNA 331
Method: 6-8 week old, male C57BL/6J mice (N=3) were injected with 1.0 mg*kg−1 of RNA-LNPs encoding for firefly-luciferase by intramuscular injection. At 24-hours post injection, animals were intraperitoneally injected with 15 mg/ml of Luciferin substrate and whole-body/injection site muscle/liver/spleen/kidney/heart/lung luminescence were determined by a bioluminescent in vivo imaging system (IVIS).

[7] = Formulation No. 001, RNA No. 019 (hEPO)
[8] = Formulation No. 001, RNA No. 331
[9] = Formulation No. 010, RNA No. 331
[10] = Formulation No. 010, RNA No. 331 (firefly-luciferase)
[11] = 1 μg/mL RNA-LNPs, Formulation 001, RNA 331
[12] = Formulation No. 010, RNA No. 331, 1 μg/mL RNA-LNPs

Structure (SMILES) | PDI [1, 8] | Size [1, 8] [nm] | Size (nm) [1] [nm] | PDI [1, 9] | EE (%) [2, 8] [%] | EE (%) [2, 9] [%] | In vitro Expression (Mean) (Hep G2 cells [3]; Formulation 001, RNA 331) | In vitro Expression (Mean) (Hep G2 cells [3]; [10]) | In vitro cell viability (%) (Mean) (Hep G2 cells [4]; [11]) | In vitro cell viability (%) (Mean) (Hep G2 cells [4]; [12]) | Whole body at 24 h (p/s) (Mean) (Balb/c mice) | Whole body at 72 h (p/s) (Mean) (Balb/c mice) | Injection site Skin (p/s) (C57BL/6J mice [5]) | Lymph node (p/s) (C57BL/6J mice [5]) | Whole body (p/s) (C57BL/6J mice [5]) | Edema, subcutaneous, focal, Grade (injection site skin) | Erosion, focal, Grade (injection site skin) | Infiltration, mononuclear cells, dermis/subcutaneous, focal, Grade (injection site skin) | Total score (injection site skin) | MCP-1 at 2 h (MCP-1) [pg/mL] | also measured
CCCCC/C=C\C/C=C\CCCCCCCC(=O)N[C@@H](COC(=O)NCCN1CCCCC1)C(=O)OCCCCCCCC(=O)OC(CCCCCCCC)CCCCCCCC [Lipid 601] | 0.09 | 80.16 | 62.33 | 0.08 | 95.30 | 95.98 | 9.94E+05 | 6.24E+05 | 81.18 | 98.14 | 3.82E+08 | 8.02E+07 | 9.69E+06 | 1.89E+06 | 5.92E+07 | 1 | — | 1 | 6 |  | PDI [1, 7]: 0.04; Size [1, 7]: 73.40 nm; EE (%) [2, 7]: 90.47%; hEPO conc. (ng/mL) at 2 h (hEPO; 2 h): 1.12 ng/mL; hEPO conc. (ng/mL) at 6 h (hEPO; 6 h): 7.35 ng/mL; hEPO conc. (ng/mL) at 24 h (hEPO; 24 h): 12.74 ng/mL; hEPO conc. (ng/mL) at 48 h (hEPO; 48 h): 3.29 ng/mL; hEPO conc. (ng/mL) at 72 h (hEPO; 72 h): 1.06 ng/mL
CCCCCCCC/C=C\CCCCCCCC(=O)NC(COC(=O)NCCN1CCCCCC1)C(=O)OCCCCCCCCOC(=O)C(CCCCCC)CCCCCCCC (stereo not drawn) [Lipid 701] | 0.10 | 76.05 | 60.60 | 0.07 | 92.16 | 95.09 | 6.00E+05 | 3.96E+05 | 74.24 | 96.43 | 4.00E+08 | 1.08E+08 | 3.34E+07 | 6.94E+06 | 6.46E+07 | — and 1 (2×) | — | 1 | 5 | 628 | MCP-1 at 24 h (MCP-1): 4620 pg/mL; IL-6 at 2 h (IL-6): 21.2 pg/mL; IL-6 at 24 h (IL-6): 108 pg/mL; Heart (p/s) (C57BL/6J mice [6]): 9.37E+05 p/s; Injection site muscle (p/s) (C57BL/6J mice [6]): 5.32E+08 p/s; Kidney (p/s) (C57BL/6J mice [6]): 2.70E+07 p/s; Liver (p/s) (C57BL/6J mice [6]): 2.35E+08 p/s; Lung (p/s) (C57BL/6J mice [6]): 2.10E+06 p/s; Spleen (p/s) (C57BL/6J mice [6]): 1.24E+08 p/s; Whole body (p/s) (C57BL/6J mice [6]): 8.27E+08 p/s
CCCCC/C=C\C/C=C\CCCCCCCC(=O)NC(COC(=O)NCCN1CCCCC1)C(=O)OCCCCCC(=O)OCC(CCCCCCCC)CCCCCCCCCC (stereo not drawn) [Lipid 728] | 0.05 | 65.33 | 56.88 | 0.09 | 96.53 | 96.83 | 3.37E+05 | 4.71E+05 | 71.13 | 90.20 | 1.86E+08 | 5.78E+07 | 4.04E+06 | 1.03E+06 | 3.58E+07 | — (2×) and 1 | — | 1 | 4 | 421 | MCP-1 at 24 h (MCP-1): 3740 pg/mL; IL-6 at 2 h (IL-6): 24.3 pg/mL; IL-6 at 24 h (IL-6): 143 pg/mL; Heart (p/s) (C57BL/6J mice [6]): 4.42E+05 p/s; Injection site muscle (p/s) (C57BL/6J mice [6]): 5.61E+08 p/s; Kidney (p/s) (C57BL/6J mice [6]): 1.42E+07 p/s; Liver (p/s) (C57BL/6J mice [6]): 7.48E+07 p/s; Lung (p/s) (C57BL/6J mice [6]): 1.56E+06 p/s; Spleen (p/s) (C57BL/6J mice [6]): 3.40E+07 p/s; Whole body (p/s) (C57BL/6J mice [6]): 6.11E+08 p/s
